Results published in ChEMBL document CHEMBL1201862, “PubChem BioAssay data set” (2004).
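The compound was tested at five concentrations on cells cultured in 96-well plates, with a 48-hour exposure period. GI50: concentration for 50% inhibition of growth.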 The source made the active and inactive calls. Cut-off read from the data, not from the text of the source: active = GI50 up to about 1.1 µM and inactive = higher.

Key:
Assay in all cases: DTP human tumour cell line panel, 48 h
SW-620 = test system: SW-620
HCC 2998 = test system: HCC 2998
NCI-H460 = test system: NCI-H460
OVCAR-4 = test system: OVCAR-4
HL-60 = test system: HL-60
SN12C = test system: SN12C
U-251 = test system: U-251
EKVX = test system: EKVX
LOX IMVI = test system: LOX IMVI
K562 = test system: K562
OVCAR-8 = test system: OVCAR-8
RPMI-8226 = test system: RPMI-8226
NCI-H226 = test system: NCI-H226
SNB-19 = test system: SNB-19
M14 = test system: M14
CCRF-CEM = test system: CCRF-CEM
HCT-116 = test system: HCT-116

Row | SMILES | GI50 (SW-620) | GI50 (HCC 2998) | GI50 (NCI-H460) | GI50 (OVCAR-4) | GI50 (HL-60) | GI50 (SN12C) | GI50 (U-251) | GI50 (EKVX) | GI50 (LOX IMVI) | GI50 (K562) | GI50 (OVCAR-8) | GI50 (RPMI-8226) | GI50 (NCI-H226) | GI50 (SNB-19) | GI50 (M14) | GI50 (CCRF-CEM) | GI50 (HCT-116)
1 | C[C@]12CCc3nonc3C1CC[C@@H]1C2CC[C@]2(C)C(=O)CCC12 (stereo partly drawn) | 40.1 µM (inactive) | 26.5 µM (inactive) | > 100 µM (inactive) | > 100 µM (inactive) | 15.5 µM (inactive) | 35.1 µM (inactive) | 48.6 µM (inactive) | 17.1 µM (inactive) | 21.5 µM (inactive) | 33.7 µM (inactive) | 31.2 µM (inactive) | 17.5 µM (inactive) | 76.9 µM (inactive) | 81.1 µM (inactive) | 64.9 µM (inactive) | 24.1 µM (inactive) | –
2 | COc1ccc(Sc2ccccc2[N+](=O)[O-])cc1 | 3.65 µM (inactive) | 8.36 µM (inactive) | 16.8 µM (inactive) | 65.3 µM (inactive) | 3.78 µM (inactive) | 21.2 µM (inactive) | 10.4 µM (inactive) | 37 µM (inactive) | 12.9 µM (inactive) | 3.32 µM (inactive) | 30.8 µM (inactive) | 25.5 µM (inactive) | 13 µM (inactive) | > 100 µM (inactive) | 4.04 µM (inactive) | 22.8 µM (inactive) | 7.64 µM (inactive)
3 | COc1cccc2c1C(=O)c1c(O)c3c(c(O)c1C2=O)C[C@@](O)(C(=O)CO)CC3OC1CC(NCCCC(OC(C)=O)OC(C)=O)C(O)C(C)O1 (stereo partly drawn) | 0.00202 µM (active) | 0.00228 µM (active) | 0.000895 µM (active) | 0.00151 µM (active) | 0.00212 µM (active) | 0.00152 µM (active) | 0.00308 µM (active) | 0.00277 µM (active) | 0.000233 µM (active) | 0.000512 µM (active) | 0.00196 µM (active) | 0.00322 µM (active) | 0.00153 µM (active) | 0.00246 µM (active) | 0.000867 µM (active) | 0.00212 µM (active) | –
4 | CN1Cc2ccccc2C2(COc3ccccc3C2=O)C1 (stereo not drawn) | > 100 µM (inactive) | > 100 µM (inactive) | > 100 µM (inactive) | 92.3 µM (inactive) | 48.9 µM (inactive) | > 100 µM (inactive) | > 100 µM (inactive) | > 100 µM (inactive) | > 100 µM (inactive) | 75.2 µM (inactive) | > 100 µM (inactive) | 68.7 µM (inactive) | 35.7 µM (inactive) | > 100 µM (inactive) | > 100 µM (inactive) | 74.3 µM (inactive) | > 100 µM (inactive)
5 | NC(CCCNc1ccc(O)cc1)C(=O)O (stereo not drawn) | 21.3 µM (inactive) | 40.6 µM (inactive) | > 59.6 µM (inactive) | 17.6 µM (inactive) | 19.8 µM (inactive) | > 47.5 µM (inactive) | > 100 µM (inactive) | 38.8 µM (inactive) | 18.5 µM (inactive) | 35.4 µM (inactive) | 33.7 µM (inactive) | 24.4 µM (inactive) | > 100 µM (inactive) | > 100 µM (inactive) | 31.8 µM (inactive) | 23.4 µM (inactive) | 18.2 µM (inactive)
6 | O=C(CCC(=O)Nc1ccc(Cl)c(Cl)c1)CC(=O)c1ccc2ccccc2c1 | > 100 µM (inactive) | > 100 µM (inactive) | > 100 µM (inactive) | > 100 µM (inactive) | > 100 µM (inactive) | > 100 µM (inactive) | > 100 µM (inactive) | > 100 µM (inactive) | > 100 µM (inactive) | 17.1 µM (inactive) | > 100 µM (inactive) | 39.8 µM (inactive) | > 100 µM (inactive) | > 100 µM (inactive) | > 100 µM (inactive) | > 100 µM (inactive) | > 100 µM (inactive)
7 | O=Cc1cc2c(cc1-c1cc3c(cc1C=O)OCO3)OCO2 | 55.8 µM (inactive) | > 100 µM (inactive) | > 100 µM (inactive) | > 100 µM (inactive) | 34.1 µM (inactive) | > 100 µM (inactive) | > 100 µM (inactive) | > 100 µM (inactive) | 23.3 µM (inactive) | 30.8 µM (inactive) | > 100 µM (inactive) | 30.3 µM (inactive) | > 100 µM (inactive) | 87.9 µM (inactive) | > 100 µM (inactive) | 23.4 µM (inactive) | 58.7 µM (inactive)
8 | O=C(CC(=O)N1N=C(c2ccccc2)C(/N=N/c2ccccc2Cl)C1=O)Nc1ccccc1Cl (stereo not drawn) | 29.9 µM (inactive) | > 100 µM (inactive) | 56.2 µM (inactive) | 20.7 µM (inactive) | 13 µM (inactive) | 58.5 µM (inactive) | 32.1 µM (inactive) | 33.1 µM (inactive) | 31.3 µM (inactive) | 31.1 µM (inactive) | 31.7 µM (inactive) | 17.3 µM (inactive) | 42.7 µM (inactive) | 40.4 µM (inactive) | 37.9 µM (inactive) | – | 25.9 µM (inactive)
